Experimental data reported in patent publication US20100093609A1, “PRODRUGS OF TRICIRIBINE AND TRICIRIBINE PHOSPHATE” (priority 2007, published 2010).

Tests used:
[1] = test system: HFF cells
[2] = in vitro; conditions: human
[3] = Stability in 100 mM phosphate buffer, pH 6.5; conditions: pH 6.5, 37° C., 0-3 hours, LC/MS/MS
[4] = Systemic plasma concentrations after duodenal administration to rats; conditions: rat, duodenal administration of 3 mg

CN1N=C(N)c2cn([C@@H]3O[C@H](COP(=O)(O)O)[C@@H](O)[C@H]3O)c3ncnc1c23 [TCNP, 6-amino-4-methyl-8-(beta.-D-ribofuranosyl)pyrrolo[4,3,2-de]pyrimido[4,5-c]pyridazine 5′ phosphate]
cytotoxic effects (in words) [1]: more toxic than TCN
IC50 at 8 days [2]: 32 µM
stability in buffer (in words) [3]: stable
intestinal absorption / plasma levels (in words) [4]: very little intestinal absorption
peak plasma levels ([4]; FIGS. 5 and 6): about 1.25 ng/ml
AUC0-4 hr of the administered compound (parent or intact prodrug) ([4]; plasma over 4 hours): 4.4 ± 0.9 (ng/ml)/hr
